Measurements from patent US6358921B1, “Antimicrobial peptide compositions and method” (priority 1996, dated 2002).
pIC50: −log10 of the molar value.

Key:
[1] = test system: S. epidermidis; type: cell-based, Staphylococcus epidermidis
Summary of the method: (§1)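 Liquid-broth microdilution: overnight LB cultures diluted and added to serial peptide dilutions at final 5×10^5 CFU/mL, incubated overnight at 37 °C. MIC is the lowest concentration inhibiting growth; C. albicans a clinical isolate, S. epidermidis clinical, C. xerosis environmental.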

[2] = test system: gram positive microorganisms; type: cell-based
Excerpt: (§2) The following bacterial strains were utilized: Escherichia coli UB1005 (wt) and its antibiotic supersusceptible derivative DC2 (Clark, 1984); Excherichia coli SC9251 and its polymixin B rasistant mutant pmrA SC9252 (Peterson, et al., 1987) Pseudomonas aeruginosa H187 (wt) (Angus, et al., 1987) and its antibiotic-sensitive derivative H188 (Zimmerman, W, Antimicrob. Agents Chemother. 18: 94-100, 1980); methicillin sensitive Staphylococcus aureus K147 (Kreiswirth, et al., 1983); Staphylococcus aureus SAP0017, a methicillin resistant clinical isolate from Dr. A. Chow (University of British Columia); Bacillus subtilis, an environmental wt lab strain. Enterococcus faecalis are ATCC 29212 cells and Staphylococcus epidermidis was a clinical isolate from Dr. D. Speert (University of British Columbia). Antifungal activity was tested using a clinical lab isolate of Candida albicans. Salmonella typhinurium C57 and C610 (Fields, P.I., et al., Science 243: 1059-1062 (1989) Corynebacterium xerosis was an environmental isolate (University of British Columbia).
(§3) It is now apparent that agar-based assays severely underestimate antifungal activity as well as activity against gram negative microorganisms (Kondejewski, et al., 1996). Consequently, in the studies reported herein, a liquid-broth method was used to measure the antibiotic properties of the peptides. […] Briefly, cells were grown overnight at 37° C. in LB and diluted in the same medium. Serial dilutions of antibiotics were added to the microtitre plates in a volume of 100 μL followed by 10 μL of bacteria to give a final inoculum of 5×10^5 CFU/mL. Plates were incubated at 37° C. overnight and MICs determined as the lowest antibiotic concentration that inhibited growth.
The results from antimicrobial and hemolytic assays are combined to provide a “Therapeutic Index” (TI) for each peptide with respect to individual microorganisms. As reported herein, the TI is calculated as the hemolytic activity divided by the antimicrobial activity. The TI thus is a measure of specificity of the particular peptide for microbial membranes as opposed to human blood cell membranes. In the present studies, antimicrobial activities are reported as minimum inhibitory concentrations (MIC)—the lowest concentration of peptide (μg/ml) found to inhibit growth of the particular microbe. Hemolytic activity is reported as the concentration of peptide that effected complete lysis of blood cells after four hours. Thus, in the context of the present invention high TI values indicate microbial specificity and relative lack of toxicity.

[3] = test system: E. coli SC9252; assay: MIC, liquid-broth microtitre dilution; type: cell-based, Escherichia coli; settings: unit from Table 10
Excerpt: as §2, §3

[4] = test system: E. coli SC9251; assay: MIC, liquid-broth microtitre dilution; type: cell-based, Escherichia coli; settings: unit from Table 10
Excerpt: as §2, §3

[5] = test system: P. aeruginosa H187; type: cell-based, Pseudomonas aeruginosa
Summary of the method: (§4)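 Liquid-broth microdilution: overnight LB cultures at 37 °C, diluted to a final inoculum of 5×10^5 CFU/mL with serial peptide dilutions, incubated overnight at 37 °C. MIC (μg/ml) is the lowest concentration that inhibited growth. Therapeutic index is the concentration giving complete hemolysis at 4 h divided by the MIC.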

[6] = test system: C. xeroses; type: cell-based, Corynebacterium xerosis
Summary of the method: as §1

[7] = test system: C. Albicans; type: cell-based, Candida albicans
Summary of the method: as §1

[8] = test system: E. faecalis; type: cell-based, Enterococcus faecalis
Summary of the method: (§5)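 Antimicrobial activity is measured by a liquid-broth assay in LB at 37 °C overnight, starting from 5×10^5 CFU/mL. Values are minimal inhibitory concentrations, i.e. the lowest concentration that stops growth.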

[9] = test system: B. subtilis; type: cell-based, Bacillus subtilis
Summary of the method: as §1

[10] = test system: Acholeplasma laidlawii; type: cell-based
Excerpt: According to another feature of the invention, GS14, which is apparently an unlikely antibacterial agent, is useful against mycoplasma infection. […] One use of such a compound is inclusion in tissue culture media, where mycoplasma contamination can pose serious problems in industrial applications of cell culture. […] Such concentrations can be determined according to standard methods known in the art.

[11] = test system: E. coli UB1005; type: cell-based, Escherichia coli
Summary of the method: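 Growth inhibition was scored after overnight culture at 37 °C in LB with peptide serial dilutions (inoculum 5×10^5 CFU/mL); MICs were the lowest inhibitory concentrations. Test strains were E. coli UB1005 (wild type), C. xerosis (environmental), and C. albicans and S. epidermidis (clinical isolates).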

[12] = test system: E. coli DC2; type: cell-based, Escherichia coli
Summary of the method: as §4

[13] = Displacement of dansyl-polymyxin from LPS; type: binding, P. aeruginosa; settings: read-out: LPS binding affinity: peptide concentration to displace 50% of dansyl-polymyxin B from LPS; Tables 1, 4, 7
Summary of the method: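 Peptides titrated into 3 μg/mL P. aeruginosa LPS with 2.5 μM dansyl-polymyxin (~90% site saturation) in 5 mM sodium HEPES, pH 7.0; fluorescence decrease recorded. I50 (50% probe displacement) taken from the x-intercept of a double-reciprocal plot of percent inhibition versus inhibitor concentration.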

[14] = test system: S. aureus K147; type: cell-based, Staphylococcus aureus
Summary of the method: (§6)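 Minimum inhibitory concentrations come from a broth rather than agar assay, using LB medium, a final inoculum of 5×10^5 CFU/mL and overnight incubation at 37 °C. Values are in μg/ml.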

[15] = test system: S. aureus SAP0017; type: cell-based, Staphylococcus aureus
Summary of the method: as §6

[16] = test system: S. typhinurium C587; type: cell-based, Salmonella typhinurium
Summary of the method: as §5

[17] = test system: S. typhinurium C610; type: cell-based, Salmonella typhinurium
Summary of the method: as §5

[18] = test system: P. aeruginosa H188; type: cell-based, Pseudomonas aeruginosa
Summary of the method: as §5

## CC(C)C[C@@H]1NC(=O)[C@H](CCCCN)NC(=O)[C@H](C(C)C)NC(=O)[C@@H]2CCCN2C(=O)[C@@H](Cc2ccc(O)cc2)NC(=O)[C@H](CC(C)C)NC(=O)[C@H](CCCCN)NC(=O)[C@H](C(C)C)NC(=O)[C@H](CCCCN)NC(=O)[C@H](CC(C)C)NC(=O)[C@@H]2CCCN2C(=O)[C@@H](Cc2ccc(O)cc2)NC(=O)[C@H](C(C)C)NC(=O)[C@H](CCCCN)NC1=O [GS14]
[1]
  Minimum Inhibitory Concentration (activity): 200 µg/mL
[2]
  MIC against four of the gram positive microorganisms tested: > 200 µg/mL
[3]
  Antibiotic activity (Table 11, ring analogs): 190 μg/ml
[4]
  Antibiotic activity (Table 11, ring analogs): 400 μg/ml
[5]; H187
  Minimum Inhibitory Concentration (activity): >200 µg/mL
[5]; P. aeruginosa H187, unit from Table 10
  Antibiotic activity (Table 11, ring analogs): 400 μg/ml
[6]
  Minimum Inhibitory Concentration (activity): 9 µg/mL
[7]
  Minimum Inhibitory Concentration (activity): 150 µg/mL
[8]
  Minimum Inhibitory Concentration (activity): 1.5 µg/mL
[9]
  Minimum Inhibitory Concentration (activity): >200 µg/mL
[10]
  MIC: less than 30 μg/ml
[11]; E. coli UB1005, unit from Table 10
  Antibiotic activity (Table 11, ring analogs): 400 μg/ml
[11]; UB1005
  Minimum Inhibitory Concentration (activity): >200 µg/mL
[12]; DC2
  Minimum Inhibitory Concentration (activity): >200 µg/mL
[12]; E. coli DC2, unit from Table 10
  Antibiotic activity (Table 11, ring analogs): 190 μg/ml
[13]
  pIC50: 5.52
[14]
  Minimum Inhibitory Concentration (activity): >200 µg/mL
[15]
  Minimum Inhibitory Concentration (activity): >200 µg/mL
[16]
  Minimum Inhibitory Concentration (activity): >200 µg/mL
[17]
  Minimum Inhibitory Concentration (activity): >200 µg/mL
[18]; H188
  Minimum Inhibitory Concentration (activity): >200 µg/mL
[18]; P. aeruginosa H188, unit from Table 10
  Antibiotic activity (Table 11, ring analogs): 400 μg/ml
